Measured values published in patent publication US20260285866A1, “MODULATORS OF TRPML, THEIR COMPOSITIONS AND METHODS OF USE” (Caraway Therapeutics, Inc., priority 2024, published 2026).

Key:
Assay type in all cases: cell-based
Human TRPML1 = Human TRPML1 (Homo sapiens, UniProt Q9GZU1, L15A/L16A/L577A/L578A); assay: Fluorescent TRPML1 assay (Fluo4-AM, HEK-293 Trex cells expressing hTRPML1); conditions: fluorescent calcium assay, doxycycline-induced hTRPML1
In short: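 Doxycycline-induced (0.5 μg/mL) HEK-293 Trex cells stably expressing surface-targeted mutant hTRPML1, loaded with 1 μM Fluo4-AM, then suspended in modified Ringer's with 10 mM calcium and added to compounds (20 μM to 6 nM final, half-log steps, triplicate). Fluorescence read at ex 480/em 540; percent activity versus plate controls, EC50 by non-linear regression.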

Human TRPML2 = biological target: T1, Human TRPML2 (Homo sapiens, UniProt Q8IZK6); assay: Fluorescent TRPML2 assay (as for TRPML1); conditions: fluorescent calcium assay as for TRPML1, TRPML2 subtype
T1 construct: expressed in transfected cells
T1 sequence (Q8IZK6 1-566): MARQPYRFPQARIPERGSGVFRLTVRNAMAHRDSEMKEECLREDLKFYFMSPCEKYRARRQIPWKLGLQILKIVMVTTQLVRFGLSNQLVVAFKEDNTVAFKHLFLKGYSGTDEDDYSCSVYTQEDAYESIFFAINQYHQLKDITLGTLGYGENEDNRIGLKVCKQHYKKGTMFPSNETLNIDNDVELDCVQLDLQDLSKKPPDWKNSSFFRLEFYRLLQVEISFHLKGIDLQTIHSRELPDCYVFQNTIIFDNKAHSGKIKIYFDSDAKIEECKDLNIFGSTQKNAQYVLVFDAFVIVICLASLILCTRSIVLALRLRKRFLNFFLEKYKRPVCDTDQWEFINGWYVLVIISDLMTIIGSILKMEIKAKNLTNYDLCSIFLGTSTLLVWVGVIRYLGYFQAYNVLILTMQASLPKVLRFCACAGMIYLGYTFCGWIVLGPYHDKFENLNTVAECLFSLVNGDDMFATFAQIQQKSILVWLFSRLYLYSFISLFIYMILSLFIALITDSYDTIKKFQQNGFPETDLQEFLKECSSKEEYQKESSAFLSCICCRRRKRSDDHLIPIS
Experimental: HEK-293 Trex cells were stably transfected with a construct consisting of the human coding sequence for TRPML1 cloned into the tet-inducible plasmid pCDNA5 T/O. Mutations were introduced into the TRPML1 sequence to facilitate expression on the cell surface (Silvia Vergarajauregui, Rosa Puertollano Traffic. 2006 March; 7(3): 337-353). Briefly, the cells are cultured in 150 mm round tissue culture dishes containing 20 mL of media. The day before the assay the cells are rinsed with DPBS-Ca-Mg and then treated briefly with Trypsin-EDTA. The Trypsin-EDTA is diluted with growth media, and cells are counted. 38×10^6 cells are re-plated into 150 mm round tissue culture dishes in media containing 0.5 μg/mL doxycycline to induce expression of hTRPML1.
The day of the experiment cells are lifted from the plates as above and collected by centrifugation. The cells are then suspended in dye loading buffer consisting of Ringer's solution supplemented with 0.1% Pluronic Acid and 1 micromolar Fluo4-AM dye. Cells are loaded for ~60 minutes in the dark with occasional mixing. The cells are collected by centrifugation, the loading media aspirated, and the cells resuspended in 25 mL Ringer's solution and incubated ~60 minutes in the dark. The cells are again collected by centrifugation, rinsed in Ringer's Solution and resuspended to 0.2×10^6 cells/mL in modified Ringer's solution containing 10 mM calcium.
Compounds are dissolved to a concentration of 10 millimolar with DMSO. Compound plates are created by dispensing compounds into 384 well black wall clear bottom plates (Greiner 781091). Positive and negative controls are included on each plate. Typically, different amounts of each compound are tested ranging from 100 nanoMoles (20 micromolar final concentration) decreasing in half-log steps to 31 picoMoles (6 nanomolar final concentration). Each concentration is typically tested in triplicate.
50 microliters of dye-loaded cells are dispensed into each well of the compound assay plate created above. The fluorescence in each well is then determined with an excitation wavelength of 480 nm and an emission wavelength of 540 nm using either a Molecular Devices SpectraMax multimode plate reader or a Hamamatsu FDSS/uCell plate imager.
The resulting fluorescence for each well is exported as an ascii file and loaded into our LIMS for analysis. The percent activity of each compound at each concentration is determined by comparison to the positive and negative control wells included in each plate.
Assays for TRPML2 and TRPML3 were performed as above for TRPML1, by substituting the appropriate TRPML2 or TRPML3 subtype for the TRPML1.
EC50 values were calculated using a non-linear regression of Prism. In the table, “A” indicates an EC50 of less than 100 nM, “B” indicates an EC50 range from 100 nM to 500 nM: “C” indicates an EC50 range from 500 nM to 2 μM; and “D” indicates an EC50 greater than 2 μM.

Human TRPML3 = biological target: T2, Human TRPML3 (Homo sapiens, UniProt Q8TDD5); assay: Fluorescent TRPML3 assay (as for TRPML1); conditions: fluorescent calcium assay as for TRPML1, TRPML3 subtype
T2 construct: expressed in transfected cells
T2 sequence (Q8TDD5 1-553): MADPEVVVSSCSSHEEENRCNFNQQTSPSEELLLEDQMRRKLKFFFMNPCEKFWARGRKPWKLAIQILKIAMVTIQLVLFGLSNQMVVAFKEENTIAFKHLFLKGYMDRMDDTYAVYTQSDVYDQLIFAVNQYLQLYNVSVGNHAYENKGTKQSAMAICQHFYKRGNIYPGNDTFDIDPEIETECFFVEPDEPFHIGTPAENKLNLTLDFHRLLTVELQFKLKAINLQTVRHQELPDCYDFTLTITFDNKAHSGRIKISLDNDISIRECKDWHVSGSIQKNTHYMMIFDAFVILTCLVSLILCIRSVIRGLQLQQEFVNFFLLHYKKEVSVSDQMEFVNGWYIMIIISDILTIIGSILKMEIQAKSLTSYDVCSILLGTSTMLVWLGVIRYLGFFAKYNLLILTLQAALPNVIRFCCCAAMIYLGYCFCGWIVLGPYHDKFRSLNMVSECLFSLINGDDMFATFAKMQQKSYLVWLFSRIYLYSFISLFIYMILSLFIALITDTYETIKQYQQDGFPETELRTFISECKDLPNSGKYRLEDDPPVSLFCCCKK
In short: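 Tet-inducible HEK-293 Trex cells expressing human TRPML2 or TRPML3, induced overnight with 0.5 μg/mL doxycycline, loaded with 1 μM Fluo4-AM and suspended in Ringer's solution with 10 mM calcium. Compounds tested in triplicate from 20 μM to 6 nM final in half-log steps; fluorescence at 480/540 nm. EC50 by non-linear regression, binned A–D.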

Sequence of Human TRPML1 (Q9GZU1 whole entry L15A/L16A/L577A/L578A): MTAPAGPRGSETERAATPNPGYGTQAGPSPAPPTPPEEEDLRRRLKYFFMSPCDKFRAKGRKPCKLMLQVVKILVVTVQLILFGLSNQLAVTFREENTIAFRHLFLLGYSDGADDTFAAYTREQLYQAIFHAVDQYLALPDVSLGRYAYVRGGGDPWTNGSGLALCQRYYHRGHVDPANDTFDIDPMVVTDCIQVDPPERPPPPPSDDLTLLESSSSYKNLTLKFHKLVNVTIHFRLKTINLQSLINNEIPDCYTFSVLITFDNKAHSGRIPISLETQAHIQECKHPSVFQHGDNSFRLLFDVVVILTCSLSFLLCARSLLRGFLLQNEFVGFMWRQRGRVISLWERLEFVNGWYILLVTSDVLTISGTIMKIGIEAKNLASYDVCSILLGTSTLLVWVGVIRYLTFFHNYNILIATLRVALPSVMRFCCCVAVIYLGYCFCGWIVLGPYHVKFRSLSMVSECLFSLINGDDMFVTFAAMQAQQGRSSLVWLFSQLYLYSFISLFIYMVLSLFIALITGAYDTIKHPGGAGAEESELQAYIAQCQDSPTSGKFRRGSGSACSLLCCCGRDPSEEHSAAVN

| EC50 (Human TRPML1) | EC50 (Human TRPML2) | EC50 (Human TRPML3) | Structure (SMILES) |
| --- | --- | --- | --- |
| < 100 nM | 500 to 2000 nM | 100 to 500 nM | CCOC(C)(C)C(=O)N1C[C@H](C)N(c2ncnc3c2c(N2CCC2)cn3-c2cc(C#N)ccn2)C[C@H]1C [Compound 173] |
| < 100 nM | < 100 nM | < 100 nM | C[C@@H]1CN(c2ncnc3c2c(-c2ccccc2F)cn3-c2cc(C#N)ccn2)[C@@H](C)CN1C(=O)C(C)(C)OCC(F)(F)F [Compound 165, 2-(4-((2S,5R)-2,5-dimethyl-4-(2-methyl-2-(2,2,2-trifluoroethoxy)propanoyl)piperazin-1-yl)-5-(2-fluorophenyl)-7H-pyrrolo[2,3-d]pyrimidin-7-yl)isonicotinonitrile] |
| < 100 nM | > 2000 nM | < 100 nM | COC1(C(=O)N2C[C@H](C)N(c3ncnc4c3c(-c3ccccc3F)cn4-c3cc(C#N)ccn3)C[C@H]2C)CN(C)C1 [Compound 163, 2-(5-(2-fluorophenyl)-4-((2S,5R)-4-(3-methoxy-1-methylazetidine-3-carbonyl)-2,5-dimethylpiperazin-1-yl)-7H-pyrrolo[2,3-d]pyrimidin-7-yl)isonicotinonitrile] |
| < 100 nM | 500 to 2000 nM | 100 to 500 nM | C[C@@H]1CN(c2ncnc3c2c(-c2ccccc2)cn3-c2cc(C#N)ccn2)[C@@H](C)CN1C(=O)CC(C)(C)O [Compound 159, 2-(4-((2S,5R)-4-(3-hydroxy-3-methylbutanoyl)-2,5-dimethylpiperazin-1-yl)-5-phenyl-7H-pyrrolo[2,3-d]pyrimidin-7-yl)isonicotinonitrile] |
| < 100 nM | 500 to 2000 nM | < 100 nM | C[C@@H]1CN(c2ncnc3c2c(-c2ccccc2F)cn3-c2cc(C#N)ccn2)[C@@H](C)CN1C(=O)C1(O)CCCCC1 [Compound 122, 2-(5-(2-fluorophenyl)-4-((2S,5R)-4-(1-hydroxycyclohexane-1-carbonyl)-2,5-dimethylpiperazin-1-yl)-7H-pyrrolo[2,3-d]pyrimidin-7-yl)isonicotinonitrile] |
| < 100 nM | > 2000 nM | 100 to 500 nM | C[C@@H]1CN(c2ncnc3c2c(-c2ccccc2)cn3-c2cc(C#N)ccn2)[C@@H](C)CN1C(=O)C(O)(C(F)(F)F)C(F)(F)F [Compound 110, 2-(4-((2S,5R)-2,5-dimethyl-4-(3,3,3-trifluoro-2-hydroxy-2-(trifluoromethyl)propanoyl)piperazin-1-yl)-5-phenyl-7H-pyrrolo[2,3-d]pyrimidin-7-yl)isonicotinonitrile] |
| 100 to 500 nM | > 2000 nM | 500 to 2000 nM | C[C@@H]1CN(c2ncnc3c2c(-c2ccncc2)cn3-c2cc(C#N)ccn2)[C@@H](C)CN1C(=O)C(C)(C)O [Compound 125, 2-(4-((2S,5R)-4-(2-hydroxy-2-methylpropanoyl)-2,5-dimethylpiperazin-1-yl)-5-(pyridin-4-yl)-7H-pyrrolo[2,3-d]pyrimidin-7-yl)isonicotinonitrile] |
| < 100 nM | 100 to 500 nM | < 100 nM | CCOC(C)(C)C(=O)N1C[C@H](C)N(c2ncnc3c2c(-c2ccccc2)cn3-c2cc(C#N)ccn2)C[C@H]1C [Compound 170, 2-(4-((2S,5R)-4-(2-ethoxy-2-methylpropanoyl)-2,5-dimethylpiperazin-1-yl)-5-phenyl-7H-pyrrolo[2,3-d]pyrimidin-7-yl)isonicotinonitrile] |
| < 100 nM | 500 to 2000 nM | < 100 nM | COC1(C(=O)N2C[C@H](C)N(c3ncnc4c3c(-c3ccccc3F)cn4-c3cc(C#N)ccn3)C[C@H]2C)COC1 [Compound 166, 2-(5-(2-fluorophenyl)-4-((2S,5R)-4-(3-methoxyoxetane-3-carbonyl)-2,5-dimethylpiperazin-1-yl)-7H-pyrrolo[2,3-d]pyrimidin-7-yl)isonicotinonitrile] |
| 500 to 2000 nM | > 2000 nM | 500 to 2000 nM | Cc1cnccc1-c1cn(-c2cc(C#N)ccn2)c2ncnc(N3C[C@@H](C)N(C(=O)C(C)(C)O)C[C@@H]3C)c12 [Compound 147, 2-(4-((2S,5R)-4-(2-hydroxy-2-methylpropanoyl)-2,5-dimethylpiperazin-1-yl)-5-(3-methylpyridin-4-yl)-7H-pyrrolo[2,3-d]pyrimidin-7-yl)isonicotinonitrile] |
| 100 to 500 nM | > 2000 nM | 500 to 2000 nM | C[C@@H]1CN(c2ncnc3c2c(-c2ccccc2)cn3-c2cc(C#N)ccn2)[C@@H](C)CN1C(=O)C1(O)COC1 [Compound 120, 2-(4-((2S,5R)-4-(3-hydroxyoxetane-3-carbonyl)-2,5-dimethylpiperazin-1-yl)-5-phenyl-7H-pyrrolo[2,3-d]pyrimidin-7-yl)isonicotinonitrile] |
| < 100 nM | > 2000 nM | 100 to 500 nM | CC[C@H]1CN(C(=O)C(C)(C)O)[C@H](C)CN1c1ncnc2c1c(-c1ccccc1)cn2-c1cc(C#N)ccn1 [Compound 129, 2-(4-((2S,5R)-2-ethyl-4-(2-hydroxy-2-methylpropanoyl)-5-methylpiperazin-1-yl)-5-phenyl-7H-pyrrolo[2,3-d]pyrimidin-7-yl)isonicotinonitrile] |
| < 100 nM | 500 to 2000 nM | 100 to 500 nM | C[C@@H]1CN(c2ncnc3c2c(-c2ccncc2)cn3-c2cc(C#N)ccn2)[C@@H](C)CN1C(=O)C1(O)CCCC1 [Compound 150, 2-(4-((2S,5R)-4-(1-hydroxycyclopentane-1-carbonyl)-2,5-dimethylpiperazin-1-yl)-5-(pyridin-4-yl)-7H-pyrrolo[2,3-d]pyrimidin-7-yl)isonicotinonitrile] |
| 100 to 500 nM | > 2000 nM | < 100 nM | C[C@@H]1CN(c2ncnc3c2c(-c2ccccc2F)cn3-c2cc(C#N)ccn2)[C@@H](C)CN1C(=O)CC(C)(C)O [Compound 158, 2-(5-(2-fluorophenyl)-4-((2S,5R)-4-(3-hydroxy-3-methylbutanoyl)-2,5-dimethylpiperazin-1-yl)-7H-pyrrolo[2,3-d]pyrimidin-7-yl)isonicotinonitrile] |
